Data taken from the NIST ThermoML archive (doi:10.1021/acs.jced.5b00820).

Experiment: refractive index (Na D-line) (dimensionless); xn = mol fraction of the nth substance listed
Conditions: 102.2 kPa, Liquid, Standard Abbe refractometry

C[Si](C)(O[Si](C)(C)c1ccccc1)c1ccccc1 [1,3-diphenyltetramethyldisiloxane] + C=C[Si]1(C)O[Si](C)(C=C)O[Si](C)(C=C)O[Si](C)(C=C)O1
refractive index
Conditions | 308.15 K | 313.15 K | 318.15 K | 323.15 K | 328.15 K
x1 = 0.0511 | 1.43117 | 1.4288 | 1.42643 | 1.42402 | 1.42168
x1 = 0.1004 | 1.43477 | 1.43241 | 1.43005 | 1.42765 | 1.42534
x1 = 0.1503 | 1.43849 | 1.4361 | 1.43374 | 1.43138 | 1.42904
x1 = 0.2 | 1.44222 | 1.43984 | 1.4375 | 1.43511 | 1.43277
x1 = 0.2537 | 1.4463 | 1.44393 | 1.44162 | 1.43922 | 1.43688
x1 = 0.3001 | 1.4499 | 1.44754 | 1.44521 | 1.44282 | 1.44051
x1 = 0.3507 | 1.45386 | 1.4515 | 1.44918 | 1.44682 | 1.44446
x1 = 0.4002 | 1.4578 | 1.45544 | 1.45312 | 1.45075 | 1.4484
x1 = 0.4503 | 1.46186 | 1.45951 | 1.45719 | 1.45481 | 1.45253
x1 = 0.4999 | 1.4659 | 1.46356 | 1.46122 | 1.45885 | 1.45654
x1 = 0.5501 | 1.47011 | 1.46778 | 1.46545 | 1.46309 | 1.46081
x1 = 0.597 | 1.47406 | 1.47174 | 1.46939 | 1.46705 | 1.46474
x1 = 0.6498 | 1.47861 | 1.47627 | 1.47398 | 1.47166 | 1.46934
x1 = 0.7005 | 1.48302 | 1.48067 | 1.47836 | 1.47601 | 1.47373
x1 = 0.7492 | 1.48734 | 1.48502 | 1.48271 | 1.48037 | 1.47809
x1 = 0.8001 | 1.49193 | 1.48963 | 1.4873 | 1.48499 | 1.48269
x1 = 0.8497 | 1.49647 | 1.49417 | 1.49187 | 1.4896 | 1.48727
x1 = 0.8999 | 1.50106 | 1.49877 | 1.49645 | 1.49415 | 1.4918
x1 = 0.9502 | 1.50586 | 1.50356 | 1.50122 | 1.49894 | 1.49665
x1 = 1 | 1.51066 | 1.50836 | 1.5061 | 1.50381 | 1.5015

C[Si](C)(O[Si](C)(C)c1ccccc1)c1ccccc1 [1,3-diphenyltetramethyldisiloxane] + C[Si]1(CCC(F)(F)F)O[Si](C)(CCC(F)(F)F)O[Si](C)(CCC(F)(F)F)O1
refractive index
Conditions | 308.15 K | 313.15 K | 318.15 K | 323.15 K | 328.15 K
x1 = 0.0501 | 1.36577 | 1.36376 | 1.36177 | 1.35973 | 1.3577
x1 = 0.1001 | 1.37152 | 1.36949 | 1.36745 | 1.36544 | 1.36339
x1 = 0.1499 | 1.37745 | 1.37541 | 1.37337 | 1.37133 | 1.36931
x1 = 0.2005 | 1.38359 | 1.38155 | 1.3795 | 1.37746 | 1.37541
x1 = 0.2497 | 1.38975 | 1.38769 | 1.38565 | 1.38355 | 1.38148
x1 = 0.3 | 1.39624 | 1.39416 | 1.39207 | 1.39 | 1.38792
x1 = 0.3431 | 1.40191 | 1.39984 | 1.39775 | 1.39565 | 1.3936
x1 = 0.4001 | 1.40958 | 1.40754 | 1.40546 | 1.40337 | 1.40125
x1 = 0.45 | 1.41665 | 1.41456 | 1.41246 | 1.41033 | 1.40824
x1 = 0.4998 | 1.42386 | 1.42173 | 1.41969 | 1.4175 | 1.41538
x1 = 0.5482 | 1.43101 | 1.42892 | 1.42678 | 1.42465 | 1.42246
x1 = 0.5996 | 1.43889 | 1.43676 | 1.43456 | 1.43246 | 1.43032
x1 = 0.6501 | 1.44686 | 1.44469 | 1.44253 | 1.44035 | 1.43816
x1 = 0.7 | 1.45499 | 1.45282 | 1.45064 | 1.44846 | 1.44627
x1 = 0.75 | 1.4634 | 1.4612 | 1.459 | 1.45683 | 1.4546
x1 = 0.8001 | 1.4721 | 1.46989 | 1.46772 | 1.4655 | 1.46326
x1 = 0.8499 | 1.48104 | 1.47886 | 1.47659 | 1.47441 | 1.47215
x1 = 0.8998 | 1.49033 | 1.48806 | 1.48584 | 1.48362 | 1.48135
x1 = 0.95 | 1.5001 | 1.49782 | 1.49555 | 1.49332 | 1.49106
x1 = 1 | 1.51009 | 1.50782 | 1.50561 | 1.50332 | 1.501

C[Si](C)(O[Si](C)(C)c1ccccc1)c1ccccc1 [1,3-diphenyltetramethyldisiloxane] + C[Si]1(C)O[Si](C)(C)O[Si](C)(C)O[Si](C)(C)O1
refractive index
Conditions | 308.15 K | 313.15 K | 318.15 K | 323.15 K | 328.15 K
x1 = 0.05 | 1.3951 | 1.39261 | 1.3901 | 1.38762 | 1.38512
x1 = 0.0999 | 1.40098 | 1.39849 | 1.39602 | 1.39357 | 1.39102
x1 = 0.1503 | 1.40694 | 1.40447 | 1.40199 | 1.39957 | 1.39707
x1 = 0.2005 | 1.41292 | 1.41044 | 1.40799 | 1.40557 | 1.40311
x1 = 0.2507 | 1.41891 | 1.41644 | 1.41401 | 1.41159 | 1.40913
x1 = 0.2963 | 1.42436 | 1.42193 | 1.41951 | 1.41708 | 1.41464
x1 = 0.3509 | 1.43091 | 1.42847 | 1.42607 | 1.42366 | 1.42126
x1 = 0.4001 | 1.43683 | 1.4344 | 1.43201 | 1.42964 | 1.42721
x1 = 0.4471 | 1.44251 | 1.44009 | 1.4377 | 1.4353 | 1.4329
x1 = 0.4968 | 1.44855 | 1.44616 | 1.44376 | 1.44142 | 1.43901
x1 = 0.5512 | 1.45518 | 1.45281 | 1.45043 | 1.44806 | 1.44571
x1 = 0.6003 | 1.46117 | 1.45878 | 1.45644 | 1.45407 | 1.45173
x1 = 0.6502 | 1.46727 | 1.46493 | 1.46256 | 1.46023 | 1.45785
x1 = 0.7001 | 1.47342 | 1.47107 | 1.46872 | 1.46638 | 1.46407
x1 = 0.7497 | 1.47954 | 1.47718 | 1.47488 | 1.47255 | 1.47021
x1 = 0.8 | 1.48577 | 1.48342 | 1.48109 | 1.47882 | 1.47646
x1 = 0.85 | 1.49197 | 1.48966 | 1.48733 | 1.48504 | 1.48273
x1 = 0.896 | 1.49768 | 1.49532 | 1.49303 | 1.49072 | 1.48841
x1 = 0.9497 | 1.50436 | 1.50202 | 1.49976 | 1.49748 | 1.49518
x1 = 1 | 1.51064 | 1.50832 | 1.50605 | 1.50377 | 1.50144

C[Si](C)(O[Si](C)(C)c1ccccc1)c1ccccc1 [1,3-diphenyltetramethyldisiloxane] + C=C[Si](C)(C)O[Si](C)(C)C=C
refractive index
Conditions | 308.15 K | 313.15 K | 318.15 K | 323.15 K | 328.15 K
x1 = 0.0502 | 1.41155 | 1.40892 | 1.40628 | 1.40366 | 1.40099
x1 = 0.1 | 1.41834 | 1.41574 | 1.41315 | 1.41057 | 1.40797
x1 = 0.1487 | 1.42478 | 1.42224 | 1.41967 | 1.41713 | 1.41456
x1 = 0.2002 | 1.43134 | 1.42886 | 1.42631 | 1.42381 | 1.42128
x1 = 0.2498 | 1.43748 | 1.43501 | 1.43251 | 1.43004 | 1.4275
x1 = 0.3 | 1.44347 | 1.44103 | 1.43853 | 1.43607 | 1.43356
x1 = 0.3503 | 1.4493 | 1.44687 | 1.4444 | 1.44199 | 1.43951
x1 = 0.3994 | 1.45477 | 1.45239 | 1.44994 | 1.44752 | 1.44508
x1 = 0.4502 | 1.46032 | 1.45792 | 1.45549 | 1.45314 | 1.45071
x1 = 0.5001 | 1.46558 | 1.46321 | 1.46081 | 1.45844 | 1.45605
x1 = 0.5498 | 1.47066 | 1.46834 | 1.46594 | 1.4636 | 1.4612
x1 = 0.6002 | 1.47565 | 1.47332 | 1.47093 | 1.46859 | 1.46619
x1 = 0.6502 | 1.48048 | 1.47816 | 1.47577 | 1.47346 | 1.47107
x1 = 0.7004 | 1.48515 | 1.48285 | 1.48049 | 1.47821 | 1.47583
x1 = 0.7504 | 1.48971 | 1.48739 | 1.48506 | 1.48275 | 1.48038
x1 = 0.8003 | 1.4941 | 1.49177 | 1.48948 | 1.48715 | 1.48483
x1 = 0.8498 | 1.49836 | 1.49606 | 1.49375 | 1.49142 | 1.48912
x1 = 0.8986 | 1.50242 | 1.50013 | 1.49781 | 1.49552 | 1.4932
x1 = 0.9502 | 1.50659 | 1.50428 | 1.50198 | 1.49974 | 1.49743
x1 = 1 | 1.51052 | 1.5082 | 1.50593 | 1.50366 | 1.50133
